How the values were obtained:
Assay type in all cases: biochemical
[1] = molecular target: T1, calpain-1 isolated from human erythrocytes (Homo sapiens, UniProt P07384); experiment: Calpain I enzyme inhibition in vitro, kinetic fluorescence assay; conditions: apparent Ki calculated from IC50 by Cheng-Prussoff; 100 μM Suc-Leu-Tyr-AMC, pH 7.3, room temperature
T1 construct: 20 nM calpain-1-isolated from human erythrocytes (Calbiochem #208713); purchased Calbiochem 208713; host or cells: human erythrocytes (natural source)
T1 sequence (P07384 1-714): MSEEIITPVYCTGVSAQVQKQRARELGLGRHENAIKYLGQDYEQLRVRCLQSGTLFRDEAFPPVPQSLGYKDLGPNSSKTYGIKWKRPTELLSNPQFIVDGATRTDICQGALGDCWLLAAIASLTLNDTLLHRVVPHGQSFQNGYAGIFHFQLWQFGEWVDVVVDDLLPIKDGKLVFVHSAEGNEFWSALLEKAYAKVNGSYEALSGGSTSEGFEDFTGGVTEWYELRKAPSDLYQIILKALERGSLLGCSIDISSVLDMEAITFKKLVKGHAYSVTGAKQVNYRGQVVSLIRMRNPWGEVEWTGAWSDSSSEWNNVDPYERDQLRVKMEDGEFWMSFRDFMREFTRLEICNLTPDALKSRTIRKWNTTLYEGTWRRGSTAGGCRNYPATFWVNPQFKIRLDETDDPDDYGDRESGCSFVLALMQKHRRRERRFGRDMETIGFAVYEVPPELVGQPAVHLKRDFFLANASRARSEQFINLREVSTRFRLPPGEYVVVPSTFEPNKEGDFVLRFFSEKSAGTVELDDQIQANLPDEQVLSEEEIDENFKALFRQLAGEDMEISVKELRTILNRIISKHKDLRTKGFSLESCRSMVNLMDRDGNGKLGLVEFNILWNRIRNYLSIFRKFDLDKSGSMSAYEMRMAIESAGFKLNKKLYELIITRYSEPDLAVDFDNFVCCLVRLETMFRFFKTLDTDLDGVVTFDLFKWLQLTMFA
T1 sequence (P04632 1-268 partner): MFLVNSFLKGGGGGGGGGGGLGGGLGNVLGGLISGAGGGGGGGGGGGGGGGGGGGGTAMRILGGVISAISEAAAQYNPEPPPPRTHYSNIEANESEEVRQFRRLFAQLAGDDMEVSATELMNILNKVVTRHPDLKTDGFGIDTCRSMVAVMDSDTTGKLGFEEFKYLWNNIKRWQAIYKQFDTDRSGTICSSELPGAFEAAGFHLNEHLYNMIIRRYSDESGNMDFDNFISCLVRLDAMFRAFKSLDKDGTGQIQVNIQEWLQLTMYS
Experimental: (§1) The following solutions and buffers were employed: • HBS (for 40 ml): 800 μl 1M HEPES; 2.16 ml 100 mM KCl; 4.8 ml 1M NaCl; 3.59 ml 5% glucose; 60 μl 1M MgSO4; 400 μl 100 mM Na pyruvate, 28.19 ml water; pH 7.2-7.5. • lysis buffer (for 20 ml): 400 μl 1M Tris pH 8.2; 2.74 ml 1M NaCl; 520 μl 0.5M EDTA; 2 ml 10% triton X-100; 0.8 ml (=1:25) CompletePlus (1 tablet/2 ml H2O); 200 μl 100 mM Pefabloc; 13.34 ml water, pH 8.2. • TBST (10×) (for 11): 100 mM Tris (12.1 g); 1.5M NaCl (87 g); 1% Tween 20 (10 g), adjusted to pH 8. I Enzyme Inhibition In Vitro: • Testing for blockade of the corresponding enzymic activities was carried out by means of kinetic fluorescence assays (excitation 390 nm, emission 460 nm). • Apparent Ki values were calculated from the experimentally determined IC50 values by the Cheng-Prussoff relation assuming a reversible competitive enzyme inhibition. The Km values of the substrates used under the assay conditions indicated above were: 90 μM (Z-Phe-Arg-AMC, cathepsin B), 10 μM (Z-Gly-Pro-Arg-AMC, cathepsin K), 2 μM (Z-Phe-Arg-AMC, cathepsin L), and 30 μM (Z-Val-Val-Arg-AMC, cathepsin S). • The indicated Ki values are averages of the inhibition constants calculated on the basis of 2 to 4 independent dose-effect plots. • The following assays were used: • 1. Calpain I: • 20 nM calpain-1-isolated from human erythrocytes (Calbiochem #208713), 100 μM Suc-Leu-Tyr-AMC (Bachem #1-1355) as substrate in buffer with 62 mM imidazole, 0.3 mM CaCl2, 0.10% CHAPS, 0.05% BSA, 1 mM DTT at pH 7.3 and room temperature. • 2. Cathepsin B: • 0.25 nM cathepsin B—isolated from human liver (Calbiochem #219362), 100 μM Z-Phe-Arg-AMC (Bachem #1-1160) as substrate 50 mM MES, 2 mM EDTA, 0.05% Brij 35, 2.5 mM L-cysteine, pH 6.0, room temperature. • 3. Cathepsin K: • 3 nM cathepsin K-activated from recombinant human procathepsin K from E. coli (Calbiochem #342001), 10 μM Z-Gly-Pro-Arg-AMC (Biomol #P-142) as substrate in 50 mM MES, 2 mM EDTA, 0.05% Brij 35, 2.5 mM L-cysteine, pH 6.0, room temperature. • 4. Cathepsin L: • 1 nM cathepsin L—isolated from human liver (Calbiochem #219402), 2 μM Z-Phe-Arg-AMC (Bachem #1-1160) as substrate in 50 mM MES, 2 mM EDTA, 0.05% Brij 35, 2.5 mM L-cysteine, pH 6.0, room temperature. • 5. Cathepsin S: • 0.5 nM recombinant human cathepsin S from E. coli (Calbiochem #219343), 20 μM Z-Val-Val-Arg-AMC (Bachem #I-1540) as substrate in 50 mM MES, 2 mM EDTA, 0.05% Brij 35, 2.5 mM L-cysteine, pH 6.0, room temperature. • The results of the in vitro determination are indicated in Table 1. The following abbreviations are used in Table 1: • In the “Calpain activity” column, +++ stands for a calpain Ki (Ki(calpain)) of ≦40 nM, and ++ means: 40 nM<Ki(Calpain)≦100 nM and + means 100 nM<Ki(Calpain)≦300 nM. • The “Sel. cat. B” column indicates the Ki(cathepsin B)/Ki(calpain) ratio. In this connection, ++ means a Ki(cathepsin B)/Ki(calpain) ratio of ≧30 and + means 10≦Ki(cathepsin B)/Ki(calpain)<30. • The “Sel. cat. K” column indicates the Ki(cathepsin K)/Ki(calpain) ratio. In this connection, ++ means a Ki(cathepsin K)/Ki(calpain) ratio of ≧30 and + means 10≦Ki(cathepsin K)/Ki(calpain)<30. • The “Sel. cat. L” column indicates the Ki(cathepsin L)/Ki(calpain) ratio. In this connection, ++ means a Ki(cathepsin L)/Ki(calpain) ratio of ≧50 and + means 30≦Ki(cathepsin L)/Ki(calpain)<50. • The “Sel. cat. S” column indicates the Ki(cathepsin S)/Ki(calpain) ratio. In this connection, ++ means a Ki(cathepsin S)/Ki(calpain) ratio of ≧100 and + means 50≦Ki(cathepsin S)/Ki(calpain)<100.

[2] = molecular target: T2, cathepsin K activated from recombinant human procathepsin K (Homo sapiens, UniProt P43235); experiment: Cathepsin K enzyme inhibition in vitro, kinetic fluorescence assay (selectivity vs calpain); conditions: ratio of Ki values; Z-Gly-Pro-Arg-AMC substrate, pH 6.0
T2 construct: purchased Calbiochem 342001; host or cells: E. coli
T2 sequence (P43235 115-329): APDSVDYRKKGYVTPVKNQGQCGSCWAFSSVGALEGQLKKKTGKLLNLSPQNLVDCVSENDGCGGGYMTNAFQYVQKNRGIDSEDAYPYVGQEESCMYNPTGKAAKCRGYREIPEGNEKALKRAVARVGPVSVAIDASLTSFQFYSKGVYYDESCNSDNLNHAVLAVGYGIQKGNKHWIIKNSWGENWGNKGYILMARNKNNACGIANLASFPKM
Experimental: as §1

[3] = molecular target: T3, cathepsin B isolated from human liver (Homo sapiens, UniProt P07858); experiment: Cathepsin B enzyme inhibition in vitro, kinetic fluorescence assay (selectivity vs calpain); conditions: ratio of Ki values; Z-Phe-Arg-AMC substrate, pH 6.0
T3 construct: 0.25 nM cathepsin B—isolated from human liver (Calbiochem #219362); purchased Calbiochem 219362; host or cells: human liver (natural source)
Experimental: as §1

[4] = molecular target: T4, cathepsin L isolated from human liver (Homo sapiens, UniProt P07711); experiment: Cathepsin L enzyme inhibition in vitro, kinetic fluorescence assay (selectivity vs calpain); conditions: ratio of Ki values; Z-Phe-Arg-AMC substrate, pH 6.0
T4 construct: 1 nM cathepsin L—isolated from human liver (Calbiochem #219402); purchased Calbiochem 219402; host or cells: human liver (natural source)
Experimental: as §1

[5] = molecular target: T5, recombinant human cathepsin S (Homo sapiens, UniProt P25774); experiment: Cathepsin S enzyme inhibition in vitro, kinetic fluorescence assay (selectivity vs calpain); conditions: ratio of Ki values; Z-Val-Val-Arg-AMC substrate, pH 6.0
T5 construct: purchased Calbiochem 219343; host or cells: E. coli
Experimental: as §1

T5 sequence (P25774 115-331): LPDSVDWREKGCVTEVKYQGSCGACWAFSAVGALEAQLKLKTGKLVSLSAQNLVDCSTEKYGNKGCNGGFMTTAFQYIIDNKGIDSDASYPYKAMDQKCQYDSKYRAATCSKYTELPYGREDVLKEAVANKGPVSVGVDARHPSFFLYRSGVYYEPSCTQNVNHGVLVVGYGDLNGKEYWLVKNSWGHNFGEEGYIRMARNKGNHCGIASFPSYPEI
T4 sequence (P07711 114-333): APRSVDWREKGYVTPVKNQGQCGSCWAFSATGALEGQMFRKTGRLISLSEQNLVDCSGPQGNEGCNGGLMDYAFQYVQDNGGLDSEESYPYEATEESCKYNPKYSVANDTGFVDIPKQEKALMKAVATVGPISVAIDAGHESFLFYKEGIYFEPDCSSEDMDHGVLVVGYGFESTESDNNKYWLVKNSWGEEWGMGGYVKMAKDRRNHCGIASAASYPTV

SMILES	Ki [1]	Sel cat. K (Ki(cathepsin K)/Ki(calpain) ratio) [2]	Sel cat. B (Ki(cathepsin B)/Ki(calpain) ratio) [3]	Sel cat. L (Ki(cathepsin L)/Ki(calpain) ratio) [4]	Sel cat. S (Ki(cathepsin S)/Ki(calpain) ratio) [5]
NC(=O)C(=O)C(Cc1ccccc1)NC(=O)c1cccnc1-c1ncc(-c2ccccc2)[nH]1 (stereo not drawn) [Example 2, N-(4-Amino-3,4-dioxo-1-phenylbutan-2-yl)-2-(5-phenyl-1H-imidazol-2-yl)pyridine-3-carboxamide]	100 to 300 nM	+ (+ means 10≦Ki(cathepsin K)/Ki(calpain)<30)			
NC(=O)C(=O)C(Cc1ccccc1)NC(=O)c1cccnc1-c1nc(-c2ccc(F)cc2)cs1 (stereo not drawn) [Example 4, N-(4-Amino-3,4-dioxo-1-phenylbutan-2-yl)-2-[4-(4-fluorophenyl)-1,3-thiazol-2-yl]pyridine-3-carboxamide]	40 to 100 nM	+ (+ means 10≦Ki(cathepsin K)/Ki(calpain)<30)	+ (+ means 10≦Ki(cathepsin B)/Ki(calpain)<30)	++ (++ means a Ki(cathepsin L)/Ki(calpain) ratio of ≧50)	++ (++ means a Ki(cathepsin S)/Ki(calpain) ratio of ≧100)
NC(=O)C(=O)C(Cc1ccccc1)NC(=O)c1cccnc1-c1csc(-c2ccc(F)cc2)n1 (stereo not drawn) [Example 5, N-(4-Amino-3,4-dioxo-1-phenylbutan-2-yl)-2-[2-(4-fluorophenyl)-1,3-thiazol-4-yl]pyridine-3-carboxamide]	40 to 100 nM		+ (+ means 10≦Ki(cathepsin B)/Ki(calpain)<30)	+ (+ means 30≦Ki(cathepsin L)/Ki(calpain)<50)	++ (++ means a Ki(cathepsin S)/Ki(calpain) ratio of ≧100)
NC(=O)C(=O)C(Cc1ccccc1)NC(=O)c1cccnc1-c1csc(-c2cccc(C(F)(F)F)c2)n1 (stereo not drawn) [Example 6, N-(4-Amino-3,4-dioxo-1-phenylbutan-2-yl)-2-{2-[3-(trifluoromethyl)phenyl]-1,3-thiazol-4-yl}pyridine-3-carboxamide]	≤ 40 nM	+ (+ means 10≦Ki(cathepsin K)/Ki(calpain)<30)	++ (++ means a Ki(cathepsin B)/Ki(calpain) ratio of ≧30)	++ (++ means a Ki(cathepsin L)/Ki(calpain) ratio of ≧50)	++ (++ means a Ki(cathepsin S)/Ki(calpain) ratio of ≧100)

Now from value to compound, other results behind:

Ki [1]	SMILES	Sel cat. K (Ki(cathepsin K)/Ki(calpain) ratio) [2]	Sel cat. B (Ki(cathepsin B)/Ki(calpain) ratio) [3]	Sel cat. L (Ki(cathepsin L)/Ki(calpain) ratio) [4]	Sel cat. S (Ki(cathepsin S)/Ki(calpain) ratio) [5]
40 to 100 nM	NC(=O)C(=O)C(Cc1ccccc1)NC(=O)c1cccnc1-c1nc2ccccc2s1 (stereo not drawn) [Example 3, N-(4-Amino-3,4-dioxo-1-phenylbutan-2-yl)-2-(1,3-benzothiazol-2-yl)pyridine-3-carboxamide]	+ (+ means 10≦Ki(cathepsin K)/Ki(calpain)<30)	+ (+ means 10≦Ki(cathepsin B)/Ki(calpain)<30)	++ (++ means a Ki(cathepsin L)/Ki(calpain) ratio of ≧50)	++ (++ means a Ki(cathepsin S)/Ki(calpain) ratio of ≧100)
≤ 40 nM	NC(=O)C(=O)C(Cc1ccccc1)NC(=O)c1cccnc1-c1csc(-c2ccccc2)n1 (stereo not drawn) [Example 7, N-(4-Amino-3,4-dioxo-1-phenylbutan-2-yl)-2-(2-phenyl-1,3-thiazol-4-yl)pyridine-3-carboxamide]	+ (+ means 10≦Ki(cathepsin K)/Ki(calpain)<30)	++ (++ means a Ki(cathepsin B)/Ki(calpain) ratio of ≧30)	++ (++ means a Ki(cathepsin L)/Ki(calpain) ratio of ≧50)	++ (++ means a Ki(cathepsin S)/Ki(calpain) ratio of ≧100)
100 to 300 nM	NC(=O)C(=O)C(Cc1ccccc1)NC(=O)c1cccnc1-c1nc2ccccc2o1 (stereo not drawn) [Example 16, N-(4-amino-3,4-dioxo-1-phenylbutan-2-yl)-2-(benzo[d]oxazol-2-yl)nicotinamide]	+ (+ means 10≦Ki(cathepsin K)/Ki(calpain)<30)	+ (+ means 10≦Ki(cathepsin B)/Ki(calpain)<30)		++ (++ means a Ki(cathepsin S)/Ki(calpain) ratio of ≧100)

Source: patent US9567325B2, “Carboxamide compounds and their use as calpain inhibitors” (AbbVie Deutschland GmbH & Co. KG, priority 2009, dated 2017)
